Species on record: Rattus norvegicus
Assay: Open TG-GATES - Regimen: Single
Type: toxicity, organism-based, Sprague-Dawley
Design: regimen Single, gender Male, age 6 weeks
Conditions: in vivo, po, route gavage; for APTT / Bas / Eos / Fbg / Hb / Ht / Lym / MCH / MCHC / MCV / Mono / Neu / PT / Plat / RBC / Ret / WBC: tissue Blood; for KIDNEY_L / KIDNEY_R / KIDNEY_TOTAL: tissue Kidney; for LIVER: tissue Liver; for A/G / ALP / ALT / AST / BUN / CRE / Ca / Cl / DBIL / GLC / IP / K / LDH / Na / PL / RALB / TBIL / TC / TG / TP / gamma-GTP: tissue Plasma
[1] = 10 mg/kg, 3 h, dose level Middle
[2] = 10 mg/kg, 6 h, dose level Middle
[3] = 10 mg/kg, 9 h, dose level Middle
[4] = 10 mg/kg, 24 h, dose level Middle
[5] = 30 mg/kg, 24 h, dose level High

## C[C@H]1C(=O)O[C@@H]2CCN3CC=C(COC(=O)[C@](C)(O)[C@]1(C)O)[C@H]23 [MONOCROTALINE]
[1]
  TERMINAL_BW: 213.5 g
  APTT: 19.4 s
  Bas: 0%
  Eos: 1.4%
  Fbg: 303.6 mg/dL
  Hb: 12.9 g/dL
  Ht: 37.7%
  Lym: 77.2%
  MCH: 21.5 pg
  MCHC: 34.2%
  MCV: 62.9 fL
  Mono: 2.2%
  Neu: 19%
  PT: 16.5 s
  Plat: 122.4 x10_4/uL
  RBC: 600.4 x10_4/ul
  Ret: 8.6%
  WBC: 80.3 x10_2/uL
  KIDNEY_L: 1 g
  KIDNEY_R: 0.9 g
  KIDNEY_TOTAL: 1.9 g
  LIVER: 9.8 g
  A/G: 1.3
  ALP: 1633.4 IU/L
  ALT: 44.4 IU/L
  AST: 72.8 IU/L
  BUN: 14.2 mg/dL
  CRE: 0.1 mg/dL
  Ca: 10.8 mg/dL
  Cl: 105.6 meq/L
  DBIL: 0.002 mg/dL
  GLC: 171.8 mg/dL
  IP: 8.9 mg/dL
  K: 4.3 meq/L
  LDH: 207.6 IU/L
  Na: 142.6 meq/L
  PL: 139 mg/dL
  RALB: 3 g/dL
  TBIL: 0.012 mg/dL
  TC: 80 mg/dL
  TG: 73.2 mg/dL
  TP: 5.3 g/dL
  gamma-GTP: 1 IU/L
[2]
  TERMINAL_BW: 207.4 g
  APTT: 21.7 s
  Bas: 0%
  Eos: 1.2%
  Fbg: 303.2 mg/dL
  Hb: 13.2 g/dL
  Ht: 38.9%
  Lym: 72.4%
  MCH: 20.9 pg
  MCHC: 34%
  MCV: 61.6 fL
  Mono: 3.2%
  Neu: 22%
  PT: 16.3 s
  Plat: 121.5 x10_4/uL
  RBC: 632 x10_4/ul
  Ret: 8.4%
  WBC: 93.8 x10_2/uL
  KIDNEY_L: 1 g
  KIDNEY_R: 1 g
  KIDNEY_TOTAL: 1.9 g
  LIVER: 9.1 g
  A/G: 1.3
  ALP: 1403 IU/L
  ALT: 36.6 IU/L
  AST: 70.8 IU/L
  BUN: 11.2 mg/dL
  CRE: 0.1 mg/dL
  Ca: 10.5 mg/dL
  Cl: 107 meq/L
  DBIL: 0.004 mg/dL
  GLC: 179.6 mg/dL
  IP: 9.5 mg/dL
  K: 4.3 meq/L
  LDH: 222.6 IU/L
  Na: 141.8 meq/L
  PL: 129 mg/dL
  RALB: 3 g/dL
  TBIL: 0.016 mg/dL
  TC: 72.2 mg/dL
  TG: 53.2 mg/dL
  TP: 5.3 g/dL
  gamma-GTP: 1 IU/L
[3]
  TERMINAL_BW: 203.7 g
  APTT: 20 s
  Bas: 0%
  Eos: 1%
  Fbg: 294.4 mg/dL
  Hb: 13.1 g/dL
  Ht: 38.6%
  Lym: 75.4%
  MCH: 21 pg
  MCHC: 34.1%
  MCV: 61.7 fL
  Mono: 2.8%
  Neu: 20.2%
  PT: 16.5 s
  Plat: 119.6 x10_4/uL
  RBC: 626 x10_4/ul
  Ret: 8.8%
  WBC: 71.7 x10_2/uL
  KIDNEY_L: 1 g
  KIDNEY_R: 1 g
  KIDNEY_TOTAL: 2 g
  LIVER: 9 g
  A/G: 1.3
  ALP: 1365.4 IU/L
  ALT: 33.6 IU/L
  AST: 62.8 IU/L
  BUN: 11.4 mg/dL
  CRE: 0.1 mg/dL
  Ca: 10.6 mg/dL
  Cl: 106.2 meq/L
  DBIL: 0.006 mg/dL
  GLC: 180.2 mg/dL
  IP: 9.7 mg/dL
  K: 4.2 meq/L
  LDH: 144 IU/L
  Na: 142.2 meq/L
  PL: 132.8 mg/dL
  RALB: 3.1 g/dL
  TBIL: 0.024 mg/dL
  TC: 73.2 mg/dL
  TG: 54.8 mg/dL
  TP: 5.4 g/dL
  gamma-GTP: 1.2 IU/L
[4]
  TERMINAL_BW: 217 g
  APTT: 21.3 s
  Bas: 0%
  Eos: 0.8%
  Fbg: 309.8 mg/dL
  Hb: 13.5 g/dL
  Ht: 39.6%
  Lym: 80.8%
  MCH: 21.1 pg
  MCHC: 34%
  MCV: 61.9 fL
  Mono: 2.8%
  Neu: 15.2%
  PT: 16.2 s
  Plat: 117.4 x10_4/uL
  RBC: 639.8 x10_4/ul
  Ret: 7.1%
  WBC: 75.2 x10_2/uL
  KIDNEY_L: 1 g
  KIDNEY_R: 1 g
  KIDNEY_TOTAL: 2 g
  LIVER: 10 g
  A/G: 1.3
  ALP: 1872.8 IU/L
  ALT: 45.2 IU/L
  AST: 75.4 IU/L
  BUN: 17 mg/dL
  CRE: 0.1 mg/dL
  Ca: 10.4 mg/dL
  Cl: 106.6 meq/L
  DBIL: 0.002 mg/dL
  GLC: 180.8 mg/dL
  IP: 6.9 mg/dL
  K: 4.3 meq/L
  LDH: 235.8 IU/L
  Na: 142.2 meq/L
  PL: 153 mg/dL
  RALB: 3.1 g/dL
  TBIL: 0.006 mg/dL
  TC: 79.4 mg/dL
  TG: 114.6 mg/dL
  TP: 5.5 g/dL
  gamma-GTP: 0.8 IU/L
30 mg/kg, 3 h, dose level High
  TERMINAL_BW: 209.7 g
  APTT: 21.1 s
  Bas: 0%
  Eos: 1.2%
  Fbg: 305.4 mg/dL
  Hb: 13.2 g/dL
  Ht: 38.8%
  Lym: 76.4%
  MCH: 21.5 pg
  MCHC: 34%
  MCV: 63.2 fL
  Mono: 2.2%
  Neu: 19.6%
  PT: 16.2 s
  Plat: 119.2 x10_4/uL
  RBC: 615.6 x10_4/ul
  Ret: 8.9%
  WBC: 71.5 x10_2/uL
  KIDNEY_L: 0.9 g
  KIDNEY_R: 0.9 g
  KIDNEY_TOTAL: 1.8 g
  LIVER: 9.5 g
  A/G: 1.4
  ALP: 1720.6 IU/L
  ALT: 40.8 IU/L
  AST: 76.4 IU/L
  BUN: 13.2 mg/dL
  CRE: 0.2 mg/dL
  Ca: 10.4 mg/dL
  Cl: 106 meq/L
  DBIL: 0 mg/dL
  GLC: 169.4 mg/dL
  IP: 9.2 mg/dL
  K: 4.2 meq/L
  LDH: 228.2 IU/L
  Na: 142 meq/L
  PL: 127.6 mg/dL
  RALB: 3.1 g/dL
  TBIL: 0.01 mg/dL
  TC: 71.2 mg/dL
  TG: 78.8 mg/dL
  TP: 5.3 g/dL
  gamma-GTP: 1 IU/L
30 mg/kg, 6 h, dose level High
  TERMINAL_BW: 211.5 g
  APTT: 22.7 s
  Bas: 0%
  Eos: 1%
  Fbg: 309.8 mg/dL
  Hb: 13.7 g/dL
  Ht: 39.8%
  Lym: 78.6%
  MCH: 20.8 pg
  MCHC: 34.4%
  MCV: 60.7 fL
  Mono: 2.6%
  Neu: 17.2%
  PT: 16.2 s
  Plat: 128.2 x10_4/uL
  RBC: 657.2 x10_4/ul
  Ret: 8.4%
  WBC: 94.1 x10_2/uL
  KIDNEY_L: 0.9 g
  KIDNEY_R: 1 g
  KIDNEY_TOTAL: 1.9 g
  LIVER: 9.6 g
  A/G: 1.3
  ALP: 1398.4 IU/L
  ALT: 39.2 IU/L
  AST: 72.8 IU/L
  BUN: 11.2 mg/dL
  CRE: 0.1 mg/dL
  Ca: 10.5 mg/dL
  Cl: 106.4 meq/L
  DBIL: 0 mg/dL
  GLC: 173 mg/dL
  IP: 9.6 mg/dL
  K: 4.4 meq/L
  LDH: 273.4 IU/L
  Na: 141.8 meq/L
  PL: 137.4 mg/dL
  RALB: 3 g/dL
  TBIL: 0.018 mg/dL
  TC: 73 mg/dL
  TG: 66 mg/dL
  TP: 5.4 g/dL
  gamma-GTP: 1 IU/L
30 mg/kg, 9 h, dose level High
  TERMINAL_BW: 210 g
  APTT: 20.9 s
  Bas: 0%
  Eos: 0.8%
  Fbg: 301.6 mg/dL
  Hb: 13.2 g/dL
  Ht: 38.3%
  Lym: 79%
  MCH: 21.2 pg
  MCHC: 34.4%
  MCV: 61.8 fL
  Mono: 1.8%
  Neu: 18%
  PT: 16.3 s
  Plat: 122.7 x10_4/uL
  RBC: 620.2 x10_4/ul
  Ret: 9%
  WBC: 63.3 x10_2/uL
  KIDNEY_L: 1 g
  KIDNEY_R: 1 g
  KIDNEY_TOTAL: 2 g
  LIVER: 9.4 g
  A/G: 1.4
  ALP: 1227.2 IU/L
  ALT: 36.8 IU/L
  AST: 70.8 IU/L
  BUN: 9.6 mg/dL
  CRE: 0.1 mg/dL
  Ca: 10.7 mg/dL
  Cl: 105.6 meq/L
  DBIL: 0.006 mg/dL
  GLC: 178 mg/dL
  IP: 10.2 mg/dL
  K: 4.3 meq/L
  LDH: 198.2 IU/L
  Na: 142.2 meq/L
  PL: 119.4 mg/dL
  RALB: 3.1 g/dL
  TBIL: 0.022 mg/dL
  TC: 64 mg/dL
  TG: 40.8 mg/dL
  TP: 5.4 g/dL
  gamma-GTP: 1 IU/L
[5]
  TERMINAL_BW: 212.6 g
  APTT: 20.5 s
  Bas: 0%
  Eos: 0.8%
  Fbg: 302.4 mg/dL
  Hb: 13.9 g/dL
  Ht: 40.3%
  Lym: 79.4%
  MCH: 21.1 pg
  MCHC: 34.5%
  MCV: 61.3 fL
  Mono: 3%
  Neu: 16.2%
  PT: 16.1 s
  Plat: 123.3 x10_4/uL
  RBC: 658.2 x10_4/ul
  Ret: 7%
  WBC: 70.1 x10_2/uL
  KIDNEY_L: 1 g
  KIDNEY_R: 1 g
  KIDNEY_TOTAL: 1.9 g
  LIVER: 10.4 g
  A/G: 1.4
  ALP: 1607.2 IU/L
  ALT: 47.8 IU/L
  AST: 75 IU/L
  BUN: 15.8 mg/dL
  CRE: 0.2 mg/dL
  Ca: 10.5 mg/dL
  Cl: 107 meq/L
  DBIL: 0.002 mg/dL
  GLC: 172 mg/dL
  IP: 7.8 mg/dL
  K: 4.3 meq/L
  LDH: 182 IU/L
  Na: 142.2 meq/L
  PL: 182.4 mg/dL
  RALB: 3.2 g/dL
  TBIL: 0.004 mg/dL
  TC: 77 mg/dL
  TG: 108 mg/dL
  TP: 5.5 g/dL
  gamma-GTP: 1 IU/L

Reference: ChEMBL document CHEMBL3885861, “Open TG-GATES”
